Results as given in PMC3479967 (Evidence-based Complementary and Alternative Medicine : eCAM, 2012).

Experiments:
UGT2B17 = target: T1, UGT2B17 (Homo sapiens, UniProt O75795); test: Inhibition of recombinant UGT2B17 activity (4-MU glucuronidation)
T1 sequence (O75795 24-530): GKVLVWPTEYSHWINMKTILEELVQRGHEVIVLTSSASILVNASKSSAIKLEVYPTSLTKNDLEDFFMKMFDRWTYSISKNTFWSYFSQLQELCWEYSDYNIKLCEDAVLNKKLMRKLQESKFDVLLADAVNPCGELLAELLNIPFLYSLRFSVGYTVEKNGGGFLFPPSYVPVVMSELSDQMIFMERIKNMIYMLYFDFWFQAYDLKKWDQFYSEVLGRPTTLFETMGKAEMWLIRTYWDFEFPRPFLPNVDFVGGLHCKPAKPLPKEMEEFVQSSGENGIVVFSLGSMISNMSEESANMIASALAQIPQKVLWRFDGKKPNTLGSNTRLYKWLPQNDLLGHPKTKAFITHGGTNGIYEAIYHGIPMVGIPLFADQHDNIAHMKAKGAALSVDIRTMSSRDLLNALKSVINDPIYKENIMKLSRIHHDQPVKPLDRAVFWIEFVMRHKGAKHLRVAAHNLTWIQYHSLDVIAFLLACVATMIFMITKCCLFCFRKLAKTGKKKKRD
Method: (§1) A panel of recombinant human UGT supersomes (UGT1A1, UGT1A3, UGT1A4, UGT1A6, UGT1A7, UGT1A8, UGT1A9, UGT1A10, UGT2B4, UGT2B7, UGT2B15, and UGT2B17) expressed in baculovirus-infected insect cells were purchased from BD Gentest Corp. (Woburn, MA, USA).
(§2) 4-MU, a nonselective substrate of UGTs, was used as probe substrate for all UGTs except UGT1A4. Incubations with each individual enzyme were conducted using conditions previously described. There was a 5 min preincubation step at 37°C before the reaction was started by addition of UDPGA. The incubation mixtures were then centrifuged at 20,500 ×g for 15 min to obtain the supernatant. Aliquots (20 μL) were then analyzed by HPLC. The HPLC system (SHIMADZU, Kyoto, Japan) consisted of an SCL-10A system controller, two LC-10AT pumps, a SIL-10A auto injector, and a SPD-10AVP UV detector. Chromatographic separation was achieved using a Kromasil ODS column (4.6 × 150 mm I.D., 5 μm particle size) at a flow rate of 1 mL/min and UV detection at 316 nm. The mobile phase consisted of 10 mM KH2PO4, pH 2.7 (A) and acetonitrile (B). The following gradient was applied at a flow rate of 1 mL/min: 0–4 min 80% A and 20% B, 4.1–8 min 50% A and 50% B, 8.1–12 min, 30% A and 70% B. All experiments were performed in two independent experiments in duplicate.
(§3) A typical incubation mixture contained recombinant human UGTs, 5 mM MgCl2, 5 mM UDPGA, 50 μg/mg protein alamethicin, 50 mM Tris-HCl buffer (pH 7.4), and various probe substrates of UGTs in the absence or presence of different concentrations of inhibitors. […] The final concentration of DMSO in the incubation system was 1% (v/v). […]
(§4) Inhibition data from experiments were graphically represented by Dixon plots. K i values were calculated by nonlinear regression using the equations for competitive inhibition (1), noncompetitive inhibition (2), or mixed inhibition (3), [22] […] The type of inhibition was determined from the enzyme inhibition models. Goodness of fit to kinetic and inhibition models was assessed from the F statistic, r ^2 values, parameter standard error estimates, and 95% confidence intervals. […]

UGT1A6 = target: T2, UGT1A6 (Homo sapiens, UniProt P19224); test: Inhibition of recombinant UGT1A6 activity (4-MU glucuronidation)
T2 sequence (P19224 27-532): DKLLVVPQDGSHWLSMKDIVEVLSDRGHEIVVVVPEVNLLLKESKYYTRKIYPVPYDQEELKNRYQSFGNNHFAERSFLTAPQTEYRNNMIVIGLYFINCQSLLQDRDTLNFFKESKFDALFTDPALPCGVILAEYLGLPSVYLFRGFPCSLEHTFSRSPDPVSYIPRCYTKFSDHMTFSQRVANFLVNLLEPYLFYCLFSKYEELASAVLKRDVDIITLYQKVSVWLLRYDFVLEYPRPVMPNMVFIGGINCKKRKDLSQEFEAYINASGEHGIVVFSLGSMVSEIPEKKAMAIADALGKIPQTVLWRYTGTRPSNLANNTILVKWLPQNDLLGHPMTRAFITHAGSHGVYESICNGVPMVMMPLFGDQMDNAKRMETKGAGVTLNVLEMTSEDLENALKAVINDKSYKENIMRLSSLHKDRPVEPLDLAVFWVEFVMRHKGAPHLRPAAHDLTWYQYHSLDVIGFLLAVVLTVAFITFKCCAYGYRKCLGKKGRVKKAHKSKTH
Method: as §1, §2, §3, §4

| SMILES | IC50 (UGT2B17) [µM] | IC50 (UGT1A6) [µM] |
| --- | --- | --- |
| COc1ccc(-c2oc3c(CC=C(C)C)c(O[C@@H]4O[C@H](CO)[C@@H](O)[C@H](O)[C@H]4O)cc(O)c3c(=O)c2O[C@@H]2O[C@@H](C)[C@H](O)[C@@H](O)[C@H]2O)cc1 [Icariin] | > 100 | > 100 |
| COc1ccc(-c2oc3c(CC=C(C)C)c(O[C@@H]4O[C@H](CO)[C@@H](O)[C@H](O)[C@H]4O)cc(O)c3c(=O)c2O)cc1 [Icariside I] | > 100 | > 100 |
| COc1ccc(-c2oc3c(CC=C(C)C)c(O)cc(O)c3c(=O)c2O)cc1 [Icaritin] | > 100 | > 100 |
